Inhibition data for 16 molecules are collected here from PMC9217908, “Screening of commonly prescribed drugs for effects on the CAT1-mediated transport of L-arginine and arginine derivatives” (Amino Acids, 2022).

Common to all, as to test: cell-based
The target of assay [1] is T1, CAT1 (cationic amino acid transporter 1, CAT1/SLC7A1) (Homo sapiens, UniProt P30825).
T1 construct: full-length human transporter stably transfected in HEK cells (HEK-CAT1); net uptake against HEK-VC vector control cells
T1 sequence (P30825 whole entry): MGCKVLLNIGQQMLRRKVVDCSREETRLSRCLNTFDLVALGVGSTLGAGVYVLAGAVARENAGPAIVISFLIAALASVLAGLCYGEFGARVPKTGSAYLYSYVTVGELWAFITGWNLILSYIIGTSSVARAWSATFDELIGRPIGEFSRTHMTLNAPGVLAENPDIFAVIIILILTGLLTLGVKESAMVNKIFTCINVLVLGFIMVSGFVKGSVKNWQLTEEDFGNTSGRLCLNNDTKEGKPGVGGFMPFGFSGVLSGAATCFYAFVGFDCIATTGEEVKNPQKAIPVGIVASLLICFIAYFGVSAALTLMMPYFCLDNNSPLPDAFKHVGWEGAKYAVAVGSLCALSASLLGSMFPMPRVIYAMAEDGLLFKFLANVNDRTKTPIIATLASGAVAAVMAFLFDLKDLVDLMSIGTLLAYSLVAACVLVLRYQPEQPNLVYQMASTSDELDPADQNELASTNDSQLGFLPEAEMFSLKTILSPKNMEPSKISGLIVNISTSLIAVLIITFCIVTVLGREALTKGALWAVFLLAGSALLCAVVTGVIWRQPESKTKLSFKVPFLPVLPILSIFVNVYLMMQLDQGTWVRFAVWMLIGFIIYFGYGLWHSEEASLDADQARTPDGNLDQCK
Also on record: species or system HEK-CAT1 (HEK293 stably transfected); Inhibition of net CAT1-mediated [3H]-L-arginine (100 uM) uptake, 5 min, scintillation counting, vector control subtracted. The settings on record: HEK293, L-arginine 100 uM as substrate; for inhibition at 20 µM: read-out: % Inhibition of L-arginine uptake at 20 µM; for inhibition at 200 µM: read-out: % Inhibition of L-arginine uptake at 200 µM. The procedure:
(§1) Uptake and inhibition assays using HEK-CAT1 and HEK-VC cells and L-arginine, L-homoarginine, and ADMA as substrates were performed using the protocol described (Strobel et al. [2012]; Chafai et al. [2017]). Briefly, after incubation, the supernatant was replaced with transport buffer containing [^3H]- L-arginine for 5 min and 2.5 min for medium containing [^3H]-L-homoarginine or [^3H]-ADMA with or without the test compound. The reference drugs were screened at concentrations of 20 µM (Figs. 1A, 2A, and 3A) and 200 µM (Figs. 1B, 2B, and 3B). […] The net uptake was determined by subtracting the total amount taken up by control cells from the amount taken up by CAT1-expressing cells, which was expressed as a percentage of the amount taken up by the control. To determine the inhibitory effects of the drugs on CAT1-mediated transport of L-arginine, L-homoarginine, or ADMA, the control was measured in the absence of the potential inhibitor. The value for the percent inhibition was calculated as: Inhibition (%) = 100 – (V/V0 ^* 100), where V and V0 are the net uptake rates (uptake into HEK-CAT1 cells—uptake into HEK-VC cells) with and without test drugs, respectively. […] Each bar represents the effect of one compound on CAT1-mediated L-arginine (100 μM) uptake as percent inhibition. Data were obtained from at least two independent experiments performed in triplicate (n = 6–9) and each test data from the independent experiment were normalized to the respective control data to get the value of percent inhibition. Negative inhibition values indicate stimulated CAT1-mediated uptake. Data were analyzed using one-way ANOVA and Dunnett’s multiple comparison test with p < 0.05. Bars showing a statistically significant inhibition or transport stimulation are shaded in black

Assay [2] addresses T1, CAT1 (cationic amino acid transporter 1, CAT1/SLC7A1). More on the design: species or system HEK-CAT1 (HEK293 stably transfected); Inhibition of net CAT1-mediated [3H]-L-homoarginine (1 uM) uptake, 2.5 min, scintillation counting, vector control subtracted. The settings on record: HEK293, L-homoarginine 1 uM as substrate; for inhibition at 20 µM: read-out: % Inhibition of L-homoarginine uptake at 20 µM; for inhibition at 200 µM: read-out: % Inhibition of L-homoarginine uptake at 200 µM. The procedure: as §1, with “L-homoarginine (1” for “L-arginine (100”

Assay [3] shares this target. More on the design: species or system HEK-CAT1 (HEK293 stably transfected); Inhibition of net CAT1-mediated [3H]-ADMA (1 uM) uptake, 2.5 min, scintillation counting, vector control subtracted. As to conditions: HEK293, ADMA 1 uM as substrate; for inhibition at 20 µM: read-out: % Inhibition of ADMA uptake at 20 µM; for inhibition at 200 µM: read-out: % Inhibition of ADMA uptake at 200 µM. The procedure: as §1, with “ADMA (1” for “L-arginine (100”

Like-named read-outs stand apart in the source and are kept apart here.

`O[C@@H](CNC[C@H](O)[C@H]1CCc2cc(F)ccc2O1)[C@@H]1CCc2cc(F)ccc2O1` (racemic) [Nebivolol]: the inhibition at 20 µM in assay [1] was 5.2 ± 3%; in assay [2] it was -4.6 ± 1.9%; in assay [3] it was -2.9 ± 1.7%. Besides, the inhibition at 200 µM in assay [1] was 1.3 ± 2.9%; in assay [2] it was 0.3 ± 3.1%; in assay [3], -6.6 ± 15.4%.

`Nc1nc(NC2CC2)c2ncn([C@H]3C=C[C@@H](CO)C3)c2n1` [Abacavir]: the inhibition at 20 µM in assay [1] was -0.9 ± 1.81%; in assay [2], -3.1 ± 2%; in assay [3], -4.3 ± 2.2%. For the same molecule, the results for the inhibition at 200 µM in assay [1], in assay [2] and in assay [3] were -12.4 ± 6%, -9.8 ± 1.7% and -78.1 ± 1.9%, respectively.

Regarding `CC(=O)Nc1ccc(O)cc1` [Acetaminophen], the results for the inhibition at 20 µM in assay [1], in assay [2] and in assay [3] were 6.6 ± 4.9%, 8.1 ± 4.7% and -14.7 ± 3.8%, respectively. In addition, the inhibition at 200 µM was 2.4 ± 1.6% in assay [1], 4.4 ± 0.7% in assay [2] and -3.9 ± 3.4% in assay [3].

Take `CC(=O)Nc1nnc(S(N)(=O)=O)s1` [Acetazolamide]: the inhibition at 20 µM in assay [1] is -12.8 ± 12.9%; in assay [2] it was -10.9 ± 11.9%; in assay [3] it was -1.5 ± 0.9%. The inhibition at 200 µM in assay [1] was determined as 8.9 ± 3.9%; in assay [2], 8.8 ± 2.1%; in assay [3] it was 9.7 ± 1.9%.

In the case of `CC(=O)N[C@@H](CS)C(=O)O` [Acetylcysteine], the inhibition at 20 µM in assay [1] was -6.6 ± 3.7%; in assay [2], -9 ± 1.5%; in assay [3], 3.2 ± 3.2%. Further, the inhibition at 200 µM in assay [1] is 4.6 ± 3.3%; in assay [2] it was 7.5 ± 1.3%; in assay [3] it was -6.1 ± 4.3%.

As for `Oc1ncnc2[nH]ncc12` [Allopurinol], the inhibition at 20 µM amounted to 5 ± 16.4% in assay [1] and 16.9 ± 2.6% in assay [3]. Besides, the figures for the inhibition at 200 µM in assay [1], in assay [2] and in assay [3] were 14.1 ± 9.6%, -2.6 ± 1.6% and 2 ± 7%, respectively.

As for `Cc1nnc2n1-c1ccc(Cl)cc1C(c1ccccc1)=NC2` [Alprazolam], the inhibition at 20 µM in assay [1] was -3.9 ± 5.3%; in assay [2] it was -4.3 ± 5.2%; in assay [3], 5.8 ± 3.8%. The inhibition at 200 µM in assay [1] amounted to 8 ± 2.7%; in assay [2], 9.6 ± 1%; in assay [3], 4.1 ± 9.5%.

On to `NC12CC3CC(CC(C3)C1)C2` [Amantadine], for which the inhibition at 20 µM is -14.2 ± 7.4% in assay [1], 11.9 ± 5.6% in assay [2] and 5.3 ± 3% in assay [3]. Further, the inhibition at 200 µM is -76 ± 4.5% in assay [1], -19.7 ± 2.6% in assay [2] and -5.7 ± 11.1% in assay [3].

In the case of `N=C(N)NC(=O)c1nc(Cl)c(N)nc1N` [Amiloride], the results for the inhibition at 20 µM in assay [1], in assay [2] and in assay [3] were -0.1 ± 9.7%, 1.5 ± 3.2% and 1.5 ± 3.2%, respectively. The inhibition at 200 µM is 10.9 ± 3.9% in assay [1], 12.6 ± 2.6% in assay [2] and -17.1 ± 2.3% in assay [3].

`CN(C)CCC=C1c2ccccc2CCc2ccccc21` [Amitriptyline]: the inhibition at 20 µM in assay [1] is 35.9 ± 3.6%; in assay [2], 0.6 ± 1.7%; in assay [3], 5.6 ± 2.9%. Also, the results for the inhibition at 200 µM in assay [1], in assay [2] and in assay [3] were 26.9 ± 4.7%, 29.7 ± 3.2% and -13.4 ± 3%, respectively.

With `CCOC(=O)C1=C(COCCN)NC(C)=C(C(=O)OC)C1c1ccccc1Cl` (stereo not drawn) [Amlodipine], the inhibition at 20 µM was -3.9 ± 5.2% in assay [1], -9.3 ± 3.3% in assay [2] and -7.3 ± 1.7% in assay [3]. Besides, the inhibition at 200 µM in assay [1] was -2.6 ± 3.9%; in assay [2], -3.9 ± 4.6%; in assay [3] it was 4 ± 9.5%.

As to `CC1(C)S[C@@H]2[C@H](NC(=O)[C@H](N)c3ccc(O)cc3)C(=O)N2[C@H]1C(=O)O` [Amoxicillin], the inhibition at 20 µM worked out at 14.9 ± 2% in assay [1], 13.3 ± 1% in assay [2] and 2.7 ± 5.9% in assay [3]. In addition, the inhibition at 200 µM in assay [1] was 5.9 ± 2.9%; in assay [2] it was 8.8 ± 1.1%; in assay [3], 10.2 ± 3.2%.

Consider `CC1(C)S[C@@H]2[C@H](NC(=O)[C@H](N)c3ccccc3)C(=O)N2[C@H]1C(=O)O` [Ampicillin], for which the inhibition at 20 µM is -2.5 ± 2.7% in assay [1], -2.5 ± 2.7% in assay [2] and 20.2 ± 2.8% in assay [3]. Further, the inhibition at 200 µM in assay [1] was 6.7 ± 1.4%; in assay [2], -6.6 ± 3.6%; in assay [3] it was -4.1 ± 2.8%.

On to `Cc1cc(=O)n(-c2ccccc2)n1C` [Antipyrine], for which the inhibition at 20 µM in assay [1] is -5.1 ± 7.2%; in assay [2] it was -8.2 ± 6%; in assay [3], 1.9 ± 2.5%. Besides, the inhibition at 200 µM is -12.7 ± 2.5% in assay [1], 12.8 ± 1.4% in assay [2] and -1.2 ± 6.1% in assay [3].

As to `CC[C@H]1OC(=O)[C@H](C)[C@@H](O[C@H]2C[C@@](C)(OC)[C@@H](O)[C@H](C)O2)[C@H](C)[C@@H](O[C@@H]2O[C@H](C)C[C@H](N(C)C)[C@H]2O)[C@](C)(O)C[C@@H](C)CN(C)[C@H](C)[C@@H](O)[C@]1(C)O` [Azithromycin], the inhibition at 20 µM in assay [1] stood at 7 ± 7.2%; in assay [2], 20.8 ± 3.3%; in assay [3], 2.8 ± 3.4%. Besides, the inhibition at 200 µM was 16.7 ± 5.2% in assay [1], 26.8 ± 2.3% in assay [2] and 12.9 ± 3.7% in assay [3].

Turning to `CCC(C)(C)C(=O)O[C@H]1C[C@@H](C)C=C2C=C[C@H](C)[C@H](CC[C@@H]3C[C@@H](O)CC(=O)O3)[C@H]21` [Simvastatin], in assay [1], the inhibition at 20 µM is -4.1 ± 0.6% and the inhibition at 200 µM was -10.5 ± 3.3%. Further, in assay [3], the inhibition at 20 µM is -18.1 ± 15% and the inhibition at 200 µM was -4.2 ± 3.5%.

One may read the inhibition as the drop in the measured response relative to a control, in per cent.
